The term IC50 denotes the midpoint of a concentration-inhibition curve. Broadly, the inhibition is the percentage by which the read-out fell short of the control.

Assay [1] has as its target T1, Hormone-sensitive lipase (HSL) (Homo sapiens, UniProt Q05469).
T1 sequence (Q05469 1-1076): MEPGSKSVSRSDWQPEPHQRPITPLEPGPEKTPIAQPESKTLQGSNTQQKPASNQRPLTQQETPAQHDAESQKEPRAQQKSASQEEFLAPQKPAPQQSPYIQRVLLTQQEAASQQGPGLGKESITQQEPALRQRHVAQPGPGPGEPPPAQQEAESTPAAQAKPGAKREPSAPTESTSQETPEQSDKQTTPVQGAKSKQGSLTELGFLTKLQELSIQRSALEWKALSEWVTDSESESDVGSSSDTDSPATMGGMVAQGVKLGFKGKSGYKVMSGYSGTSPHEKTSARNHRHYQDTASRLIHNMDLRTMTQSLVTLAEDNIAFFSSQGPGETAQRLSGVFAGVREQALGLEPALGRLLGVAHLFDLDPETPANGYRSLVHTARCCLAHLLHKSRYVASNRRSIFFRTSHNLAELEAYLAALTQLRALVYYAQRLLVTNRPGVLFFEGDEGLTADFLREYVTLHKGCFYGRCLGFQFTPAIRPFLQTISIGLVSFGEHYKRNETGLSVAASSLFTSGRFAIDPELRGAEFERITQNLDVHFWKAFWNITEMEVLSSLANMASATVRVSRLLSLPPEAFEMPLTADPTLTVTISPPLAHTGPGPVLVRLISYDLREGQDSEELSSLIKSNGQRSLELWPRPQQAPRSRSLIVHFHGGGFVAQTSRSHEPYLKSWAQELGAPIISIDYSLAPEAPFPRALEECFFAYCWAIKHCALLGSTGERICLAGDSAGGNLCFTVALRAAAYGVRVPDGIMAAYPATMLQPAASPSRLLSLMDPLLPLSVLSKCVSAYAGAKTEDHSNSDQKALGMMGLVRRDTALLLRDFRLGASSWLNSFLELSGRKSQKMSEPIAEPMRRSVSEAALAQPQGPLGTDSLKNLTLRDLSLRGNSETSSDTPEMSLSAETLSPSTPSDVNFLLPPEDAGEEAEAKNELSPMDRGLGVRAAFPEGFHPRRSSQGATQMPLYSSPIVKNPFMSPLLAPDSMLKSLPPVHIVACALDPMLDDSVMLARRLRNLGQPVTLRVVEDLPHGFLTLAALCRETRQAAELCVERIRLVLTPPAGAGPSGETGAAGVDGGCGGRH
Description: Hormone-sensitive lipase (HSL) inhibition assay, 3H-labeled triolein or MOME substrate. Type of assay: biochemical. To be noted: read-out: HSL inhibition (IC50). From the text:
Hormone-sensitive lipase (HSL) [classified as a triacylglycerol lipase, EC 3.1.1.3, in accordance with the Recommendations of the Nomenclature Committee of the International Union of Biochemistry and Molecular Biology (available on the World Wide Web at the following address: http://www.chem.qmw.ac.uk/iubmb/enzyme/)]
Materials. The Hormone-sensitive lipase employed was provided by Dr. Cecilia Holm of Lund University, Sweden, or produced and purified by Novo Nordisk (NN) using the reagents and protocols employed by Dr. Holm. The substrates used are: ^3H-labeled triolein (TO) from Amersham, Buckinghamshire, U.K. cat No. TRA191; 5-20 Ci/mmol dissolved in toluene, triolein (Sigma, Cat. No. T-1740) and mono-oleoyl-2-O-mono-oleylglycerol (MOME) synthesized at (NN) using the protocols provided by Dr. Cecilia Holm, Lund University, Sweden. Phosphatidyl choline (PC) and phosphatidyl inositol (PI) are from Sigma (St Luis Mo., cat. Nos. P-3556 and P-5954, respectively). All other reagents are of commercial grade and obtained from various commercial sources.
Methods. The preparation of the substrates is as follows:
TO: 30 μl PC:PI (20 mg/ml solution of PC:PI 3:1 prepared in chloroform)+128 μl cold TO+15 μl ^3H-TO
MOME: 30 μl PC:PI+100 μl cold MOME+200 μl ^3H-MOME
They are then evaporated under a gentle stream of N2 followed by 20-30 minutes in a Speedvac™ apparatus to ensure the absence of residual solvent.
The samples are prepared as follows:
Samples/controls: 78 μl PED-BSA+20 μl inhibitor (various concentrations)+2 μl HSL (undiluted 0.12 mg/ml). If no inhibitors are being tested, the reaction contains 98 μl PED-BSA+2 μl HSL.
The samples are put on ice and then sonicated as follows:
With TO as substrate, add 2 ml potassium buffer (0.1M potassium phosphate, pH 7) and then sonicate twice for 1 minute, with a 1-minute interval between cycles. Add an additional 1 ml potassium buffer and sonicate 4 times for 30 seconds, with a 30 second interval in between cycles. To finish, add 1 ml BSA 20%-in potassium buffer, mix by inversion and store on ice until use.
With MOME as substrate: add 2 ml potassium buffer and then sonicate twice for 1 minute, with a 1 minute interval between cycles. Add 1.6 ml potassium buffer and sonicate 4 times for 30 seconds, with a 30-second interval between cycles. To finish, add 0.4 ml BSA 20%-buffer, mix by inversion and store on ice until use.
The enzyme reaction is run at 37° C. The substrate mix is added to the various reactions at 10 second intervals, incubated for 30 minutes in a water bath and then stopped with 3.25 ml of a solution containing CH3OH:CHCl3:heptane (10:9:7). After the addition of 1.05 ml potassium buffer pH10.5, the sample is vortexed thoroughly and centrifuged for 20 min at 2000 r.p.m. One ml of the upper phase is added to 10 ml scintillation fluid, and mixed thoroughly by shaking.
The samples are then counted, 5 min per vial, in a scintillation counter.

The target of another assay is T2, Hepatic lipase (HL) (Homo sapiens, UniProt P11150).
T2 sequence (P11150 23-499): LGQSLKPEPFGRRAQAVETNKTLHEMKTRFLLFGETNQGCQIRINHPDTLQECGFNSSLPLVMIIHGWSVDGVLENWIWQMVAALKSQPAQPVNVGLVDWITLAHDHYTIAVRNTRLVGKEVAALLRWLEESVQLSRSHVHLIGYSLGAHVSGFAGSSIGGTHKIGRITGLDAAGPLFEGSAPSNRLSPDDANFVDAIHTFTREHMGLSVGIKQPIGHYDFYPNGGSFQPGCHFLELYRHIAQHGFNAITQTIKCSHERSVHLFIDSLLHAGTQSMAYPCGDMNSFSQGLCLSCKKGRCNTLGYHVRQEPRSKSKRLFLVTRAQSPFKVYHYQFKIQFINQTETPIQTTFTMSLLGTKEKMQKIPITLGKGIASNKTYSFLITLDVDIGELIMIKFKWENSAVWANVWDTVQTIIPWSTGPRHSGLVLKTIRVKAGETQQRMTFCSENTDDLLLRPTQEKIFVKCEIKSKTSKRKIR
Description: Hepatic lipase (HL) inhibition assay, 3H-triolein substrate. The format is biochemical. To be noted: read-out: HL inhibition (% inh. at 50 μM). From the text: Hepatic Lipase (HL) [classified as a triacylglycerol lipase, EC 3.1.1.3, in accordance with the Recommendations of the Nomenclature Committee of the International Union of Biochemistry and Molecular Biology (available on the World Wide Web at the following address: http://www.chem.qmw.ac.uk/iubmb/enzyme/)]
Materials. The hepatic lipase employed was obtained from Dr. Howard Wong of the University of California at Los Angeles (UCLA), USA, or produced and purified using the methods and a cell line provided by Dr. Wong's laboratory. ^3H-triolein (TO) from Amersham, Buckinghamshire, U.K., cat No. TRA191; 5-20 Ci/mmol dissolved in toluene and triolein (Sigma, Cat. No. T-1740). All other reagents are of commercial grade and obtained from various commercial sources.
50 μl TO in a 20 ml scintillation vial and evaporate with N2 for 5 minutes.
Add 1 ml 10% gum arabic and 1.25 ml Tris-Cl pH 8.5 and 2 ml MilliQ water.
Sonicate, on ice, 16 times for 30 seconds with a 30-second interval between cycles.
Add 2.5 ml of 5 M NaCl+2.5 ml BSA (10% in Milli Q, pH 8)+3.25 ml Milli Q
Total volume: 12.5 ml (for 80 reactions )
If an inhibitor is going to be used, it should be incubated with the 50 μl HL (of a 125 mU/ml solution) for 70 minutes at 25° C. A 5 μl aliquot from the incubated 50 μl is added to 150 μl assay mix+45 μl Milli Q™ water and mixed.
Incubate for exactly 30 minutes at 25° C.
Stop the reaction with Methanol:chloroform:heptane 10:9:7: 3.25 ml/vial, mix; then add 1.05 ml buffer (100 mM boric acid, 100 mM potassium carbonate pH 10.5), mix for 10 seconds per vial.
Centrifuge for 20 min/2000 rpm
Take 1 ml of the upper phase+10 ml scintillation fluid and mix by shaking by hand.
Scintillation count for 5 minutes per vial.

Regarding `O=C(NN1CCc2ccccc2C1)Oc1ccccc1` [Example 1, (3,4-Dihydro-1H-isoquinolin-2-yl)-carbamic Acid Phenyl Ester], in assay [1], the IC50 is 0.2 µM. Moreover, the inhibition at 50 µM on Hepatic lipase (HL) was 5%.

Values taken from patent publication US20020082254A1, “Compounds for treating disorders where a decreased level of plasma FFA is desired” (priority 2000, published 2002).
